Measured values taken from patent publication US20260274829A1, “NEW E3 UBIQUITIN LIGASE LIGAND, PROTEIN DEGRADATION AGENT AND USE THEREOF” (GLUETACS THERAPEUTICS (SHANGHAI) CO., LTD., priority 2023, published 2026).

target: T1, human Cereblon WT GST-tagged protein (Homo sapiens, UniProt Q96SW2); assay: CRBN binding, HTRF CEREBLON BINDING kit; settings: not given
T1 construct: purchased CISBIO 64BDCRBNPEH
In short: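 HTRF competition in which test compounds displace a Thalidomide-Re tracer from GST-tagged human Cereblon WT, detected with a GST Eu antibody. Incubation lasted 3 hours at room temperature, with emission read at 620 and 665 nm. Inhibition rate was derived from 665/620 ratios relative to blank and solvent control wells.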

T1 sequence (Q96SW2 whole entry): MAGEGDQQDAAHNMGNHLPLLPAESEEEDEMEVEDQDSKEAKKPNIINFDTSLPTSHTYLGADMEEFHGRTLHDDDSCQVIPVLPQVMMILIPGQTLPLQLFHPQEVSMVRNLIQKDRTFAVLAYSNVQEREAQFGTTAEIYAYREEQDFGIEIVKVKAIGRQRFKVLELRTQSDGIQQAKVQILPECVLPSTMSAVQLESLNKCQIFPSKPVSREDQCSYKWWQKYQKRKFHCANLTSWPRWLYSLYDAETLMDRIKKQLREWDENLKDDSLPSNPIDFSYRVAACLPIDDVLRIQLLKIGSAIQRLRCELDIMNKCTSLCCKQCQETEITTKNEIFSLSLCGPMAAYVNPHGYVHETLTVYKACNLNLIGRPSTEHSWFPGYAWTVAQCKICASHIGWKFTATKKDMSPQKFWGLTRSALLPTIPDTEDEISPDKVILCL

Row | SMILES | IC50
1 | C=CC(=O)Nc1cc(Nc2nccc(-c3cn(C)c4ccccc34)n2)c(OC)cc1N(C)CCN(C)C [osimertinib, reference compound] | > 10000 nM

same assay, conditions: CRBN binding, HTRF CEREBLON BINDING kit

Row | SMILES | IC50
2 | COc1cc(N2CCN(Cc3cncc(N4CCC(=O)NC4=O)c3)CC2)ccc1Nc1ncc(Cl)c(Nc2ccccc2P(C)(C)=O)n1 [GT-07709, 1-(5-((4-(4-((5-chloro-4-((2-(dimethylphosphoryl)phenyl)amino)pyrimidin-2-yl)amino)-3-methoxyphenyl)piperazin-1-yl)methyl)pyridin-3-yl)dihydropyrimidine-2,4(1H,3H)-dione] | 500 to 1000 nM
3 | COc1cc(N2CCN(Cc3ccc(C4CCC(=O)NC4=O)cn3)CC2)ccc1Nc1ncc(Cl)c(Nc2ccccc2P(C)(C)=O)n1 (stereo not drawn) [GT-07713, 3-(6-((4-(4-((5-chloro-4-((2-(dimethylphosphoryl)phenyl)amino)pyrimidin-2-yl)amino)-3-methoxyphenyl)piperazin-1-yl)methyl)pyridin-3-yl)piperidine-2,6-dione] | 500 to 1000 nM
4 | Cc1ccc(-c2c(C)noc2C)cc1N(CC1CCN(Cc2ccc(N3CCC(=O)NC3=O)cc2F)CC1)c1ccc(C2(C#N)CC2)cc1 [GT-04973, 1-(4-((5-(3,5-dimethylisoxazol-4-yl)-2-methylphenyl)((1-(4-(2,4-dioxotetrahydropyrimidin-1(2H)-yl)-2-fluorobenzyl)piperidin-4-yl)methyl)amino)phenyl)cyclopropane-1-carbonitrile] | 1000 to 1900 nM
5 | O=C1CCC(c2ccc(CN3C[C@H]4C[C@@H]3CN4c3ccc(-c4cc(F)c5c(c4)C(=O)N(C(C(=O)Nc4nccs4)c4ncn6c4CCC6)C5)cc3)nc2)C(=O)N1 (stereo partly drawn) [GT-07389, 2-(6,7-dihydro-5H-pyrrolo[1,2-c]imidazol-1-yl)-2-(6-(4-((1R,4R)-5-((5-(2,6-dioxopiperidin-3-yl)pyridin-2-yl)methyl)-2,5-diazabicyclo[2.2.1]heptan-2-yl)phenyl)-4-fluoro-1-oxoisoindolin-2-yl)-N-(thiazol-2-yl)acetamide] | < 500 nM
6 | Nc1nnc(-c2ccccc2O)cc1N1CCN(Cc2ccc(C3CCC(=O)NC3=O)cc2)CC1 (stereo not drawn) [GT-05015, 3-(4-((4-(3-amino-6-(2-hydroxyphenyl)pyridazin-4-yl)piperazin-1-yl)methyl)phenyl)piperidine-2,6-dione] | < 500 nM
7 | Nc1nnc(-c2ccccc2O)cc1N1CCN(Cc2ccc(N3CCC(=O)NC3=O)cc2)CC1 [GT-04961, 1-(4-((4-(3-amino-6-(2-hydroxyphenyl)pyridazin-4-yl)piperazin-1-yl)methyl)phenyl)dihydropyrimidine-2,4(1H,3H)-dione] | 500 to 1000 nM
8 | CN(C)C(=O)c1cc2cnc(Nc3ccc(N4CCC(N(C)Cc5ccc(N6CCC(=O)NC6=O)cc5)CC4)cn3)nc2n1C1CCCC1 [GT-06491, 7-cyclopentyl-2-((5-(4-((4-(2,4-dioxotetrahydropyrimidin-1(2H)-yl)benzyl)(methyl)amino)piperidin-1-yl)pyridin-2-yl)amino)-N,N-dimethyl-7H-pyrrolo[2,3-d]pyrimidine-6-carboxamide] | 500 to 1000 nM
9 | Cc1nc2c(F)cc(-c3nc(Nc4ccc(CN5CCN(Cc6cccc(N7CCC(=O)NC7=O)c6)CC5)cn4)ncc3F)cc2n1C(C)C [GT-06666, 1-(3-((4-((6-((5-fluoro-4-(4-fluoro-1-isopropyl-2-methyl-1H-benzo[d]imidazol-6-yl)pyrimidin-2-yl)amino)pyridin-3-yl)methyl)piperazin-1-yl)methyl)phenyl)dihydropyrimidine-2,4(1H,3H)-dione] | < 500 nM
10 | CCc1cc2c(cc1N1CCN(Cc3cccc(NC4CCC(=O)NC4=O)c3)CC1)C(C)(C)c1[nH]c3cc(C#N)ccc3c1C2=O (stereo not drawn) [GT-07328, 8-(4-(3-((2,6-dioxopiperidin-3-yl)amino)benzyl)piperazin-1-yl)-9-ethyl-6,6-dimethyl-11-oxo-6,11-dihydro-5H-benzo[b]carbazole-3-carbonitrile] | < 500 nM
11 | CCc1cc2c(cc1N1CCC(N3CCN(Cc4ccc(N5CCC(=O)NC5=O)cn4)CC3)CC1)C(C)(C)c1[nH]c3cc(C#N)ccc3c1C2=O [GT-07311, 8-(4-(4-((5-(2,4-dioxotetrahydropyrimidin-1(2H)-yl)pyridin-2-yl)methyl)piperazin-1-yl)piperidin-1-yl)-9-ethyl-6,6-dimethyl-11-oxo-6,11-dihydro-5H-benzo[b]carbazole-3-carbonitrile] | 500 to 1000 nM
12 | COc1ccc2cn(C3CCN(Cc4ccc(C5CCC(=O)NC5=O)c(F)c4)CC3)nc2c1NC(=O)c1cccc(C(F)(F)F)c1 (stereo not drawn) [GT-04814, N-(2-(1-(4-(2,6-dioxopiperidin-3-yl)-3-fluorobenzyl)piperidin-4-yl)-6-methoxy-2H-indazol-7-yl)-3-(trifluoromethyl)benzamide] | 500 to 1000 nM
13 | O=C1CCC(c2ccc(CN3CCC(N4CCN(c5ccc(-c6cc(F)c7c(c6)C(=O)N(C(C(=O)Nc6nccs6)c6ncn8c6CCC8)C7)cc5)CC4)CC3)cc2)C(=O)N1 (stereo not drawn) [GT-06326, 2-(6,7-dihydro-5H-pyrrolo[1,2-c]imidazol-1-yl)-2-(6-(4-(4-(1-(4-(2,6-dioxopiperidin-3-yl)benzyl)piperidin-4-yl)piperazin-1-yl)phenyl)-4-fluoro-1-oxoisoindolin-2-yl)-N-(thiazol-2-yl)acetamide] | 500 to 1000 nM
14 | CC(C)(O)c1cc2nc(C3CCN(Cc4cccc(N5CCC(=O)NC5=O)c4)CC3)sc2cc1NC(=O)c1cccc(C(F)(F)F)n1 [GT-05765, N-(2-(1-(3-(2,4-dioxotetrahydropyrimidin-1(2H)-yl)benzyl)piperidin-4-yl)-5-(2-hydroxypropan-2-yl)benzo[d]thiazol-6-yl)-6-(trifluoromethyl)picolinamide] | 500 to 1000 nM
15 | O=C1CCN(c2ccc(CN3CCN(C4CCN(c5ccc(Nc6ncc7nc(Nc8ccccc8)n(C8CCCC8)c7n6)cc5)CC4)CC3)cc2)C(=O)N1 [GT-05917, 1-(4-((4-(1-(4-((9-cyclopentyl-8-(phenylamino)-9H-purin-2-yl)amino)phenyl)piperidin-4-yl)piperazin-1-yl)methyl)phenyl)dihydropyrimidine-2,4(1H,3H)-dione] | 500 to 1000 nM
16 | COc1cc2nn(C3CCN(Cc4ccc(N5CCC(=O)NC5=O)cc4)CC3)cc2cc1NC(=O)c1cccc(C(F)(F)F)c1 [GT-04752, N-(2-(1-(4-(2,4-dioxotetrahydropyrimidin-1(2H)-yl)benzyl)piperidin-4-yl)-6-methoxy-2H-indazol-5-yl)-3-(trifluoromethyl)benzamide] | 1000 to 1900 nM
17 | CCc1cc2c(cc1N1CCN(Cc3ccc(C4CCC(=O)NC4=O)cc3)CC1)C(C)(C)c1[nH]c3cc(C#N)ccc3c1C2=O (stereo not drawn) [GT-07323, 8-(4-(4-(2,6-dioxopiperidin-3-yl)benzyl)piperazin-1-yl)-9-ethyl-6,6-dimethyl-11-oxo-6,11-dihydro-5H-benzo[b]carbazole-3-carbonitrile] | 500 to 1000 nM
18 | CN1CCN([C@@H]2CCCN(c3cnc(C(N)=O)c(Nc4ccc(C5CCN(Cc6ccc(C7CCC(=O)NC7=O)c(F)c6)CC5)cc4)n3)C2)C1=O (stereo partly drawn) [GT-04799, 3-((4-(1-(4-(2,6-dioxopiperidin-3-yl)-3-fluorobenzyl)piperidin-4-yl)phenyl)amino)-5-((R)-3-(3-methyl-2-oxoimidazolidin-1-yl)piperidin-1-yl)pyrazine-2-carboxamide] | < 500 nM
19 | O=C1CCC(c2cc(CN3C[C@H]4C[C@@H]3CN4c3ccc(-c4cc(F)c5c(c4)C(=O)N(C(C(=O)Nc4nccs4)c4ncn6c4CCC6)C5)cc3)ccn2)C(=O)N1 (stereo partly drawn) [GT-07390, 2-(6,7-dihydro-5H-pyrrolo[1,2-c]imidazol-1-yl)-2-(6-(4-((1R,4R)-5-((2-(2,6-dioxopiperidin-3-yl)pyridin-4-yl)methyl)-2,5-diazabicyclo[2.2.1]heptan-2-yl)phenyl)-4-fluoro-1-oxoisoindolin-2-yl)-N-(thiazol-2-yl)acetamide] | 500 to 1000 nM
20 | O=C1CCN(c2ccc(CN3CCN(c4ccc(-c5cc(F)c6c(c5)C(=O)N(C(C(=O)Nc5nccs5)c5ncn7c5CCC7)C6)cc4)CC3)cc2)C(=O)N1 (stereo not drawn) [GT-06164, 2-(6,7-dihydro-5H-pyrrolo[1,2-c]imidazol-1-yl)-2-(6-(4-(4-(4-(2,4-dioxotetrahydropyrimidin-1(2H)-yl)benzyl)piperazin-1-yl)phenyl)-4-fluoro-1-oxoisoindolin-2-yl)-N-(thiazol-2-yl)acetamide] | 500 to 1000 nM
21 | O=C1CCC(c2ccc(CN3CCN(C4CCN(c5ccc(-c6cc(F)c7c(c6)C(=O)N(C(C(=O)Nc6nccs6)c6ncn8c6CCC8)C7)cc5)CC4)CC3)cc2)C(=O)N1 (stereo not drawn) [GT-06243, 2-(6,7-dihydro-5H-pyrrolo[1,2-c]imidazol-1-yl)-2-(6-(4-(4-(4-(4-(2,6-dioxopiperidin-3-yl)benzyl)piperazin-1-yl)piperidin-1-yl)phenyl)-4-fluoro-1-oxoisoindolin-2-yl)-N-(thiazol-2-yl)acetamide] | < 500 nM
22 | CN1CCN([C@@H]2CCCN(c3cnc(C(N)=O)c(Nc4ccc(C5CCN(Cc6ccc(N7CCC(=O)NC7=O)cc6F)CC5)cc4)n3)C2)C1=O [GT-04803, (R)-3-((4-(1-(4-(2,4-dioxotetrahydropyrimidin-1(2H)-yl)-2-fluorobenzyl)piperidin-4-yl)phenyl)amino)-5-(3-(3-methyl-2-oxoimidazolidin-1-yl)piperidin-1-yl)pyrazine-2-carboxamide] | 500 to 1000 nM
23 | O=C1CCN(c2ccc(CN3C4CCC3CN(c3ccc(-c5cc(F)c6c(c5)C(=O)N(C(C(=O)Nc5nccs5)c5ncn7c5CCC7)C6)cc3)C4)nc2)C(=O)N1 (stereo not drawn) [GT-06255, 2-(6,7-dihydro-5H-pyrrolo[1,2-c]imidazol-1-yl)-2-(6-(4-(8-((5-(2,4-dioxotetrahydropyrimidin-1(2H)-yl)pyridin-2-yl)methyl)-3,8-diazabicyclo[3.2.1]octan-3-yl)phenyl)-4-fluoro-1-oxoisoindolin-2-yl)-N-(thiazol-2-yl)acetamide] | < 500 nM
24 | COc1cc(N2CCN(Cc3cc(C4CCC(=O)NC4=O)cnc3F)CC2)ccc1Nc1ncc(Cl)c(Nc2ccccc2P(C)(C)=O)n1 (stereo not drawn) [GT-07710, 3-(5-((4-(4-((5-chloro-4-((2-(dimethylphosphoryl)phenyl)amino)pyrimidin-2-yl)amino)-3-methoxyphenyl)piperazin-1-yl)methyl)-6-fluoropyridin-3-yl)piperidine-2,6-dione] | < 500 nM
